Among the data in US10844017B2, “Biaryl compound, preparation method and use thereof” (FUDAN UNIVERSITY, priority 2017, dated 2020) are activation and EC50 values, retold here.

The term EC50 denotes the concentration at which the effect is half-maximal. A low value points to a more potent agent.

The subject of experiment [1] is Mouse lymphoma EL4 cells transfected with RORγt plasmid. The experiment is described as follows: Determination of the activation rate on mouse lymphoma EL4 (IL-17 generation). The following applies: compound at 2 μM, 24 hours, PMA/ionomycin stimulation 4 hours, flow cytometry, read-out: +act % (activation of IL-17 generated by EL4 cells). The experiment is classed as cell-based. The method, then:
Determination of the Activation Rate on Mouse Lymphoma EL4
Mouse lymphoma EL4 cells transfected with RORγt plasmid were cultured at 37° C. under an atmosphere with 5% CO2, with a test compound added simultaneously. After 24 hours, the generation efficiency of IL-17A was analyzed. Before collection of cells, PMA at 50 ng/mL and ionomycin at 500 ng/mL were added for stimulation for 4 hours. The proportion of IL-17 was detected by intracellular staining and flow cytometry. […] The activation rate of IL-17 generated by EL4 cells for the compound was measured at a concentration of 2 μM.
Background: A flow cytometer gives signals particle by particle.

Experiment [2] relates to Mouse spleen CD4+T cells differentiated into Th17 cells. The experiment is described as follows: Mouse Th17 cell differentiation, half-maximal effect concentration. The experiment is classed as cell-based. The conditions noted are these: 96 hours, proportion of IL-17 by intracellular staining and flow cytometry. The protocol: Determination of the Half-Maximal Effect Concentration of Mouse Th17 Cell Differentiation
Experimental methods: Mouse spleen CD4^+T cells were separated and differentiated into Th17 cells. CD4^+T cells were cultured in the environment containing anti-CD3 (0.25 μg/mL), anti-CD28 (1 μg/mL), anti-IL4 (2 μg/mL), anti-IFN-γ (2 μg/mL), TGF-β (5 ng/mL), and IL6 (20 ng/mL), with a test compound added at the same time. After 96 hours, the differentiation efficiency of Th17 was analyzed. Before collection of cells, PMA at 50 ng/mL and ionomycin at 500 ng/mL were added for stimulation for 4 hours, and the proportion of IL-17 was detected by intracellular staining and flow cytometry. Meanwhile, we used Live/Dead Cell Dye (Invitrogen) staining method to analyze the cell survival rate and to judge whether the drug had toxicity to cells, and determined the half-maximal effect concentration EC50 of the compounds.

Experiment [3] concerns the target T1, RORγ receptor (B-RORγ LBD / Bioin-SRC1) (Homo sapiens, UniProt P51449).
T1 construct: 40 nM B-RORγ LBD solution
T1 sequence (P51449 269-508 limits assumed): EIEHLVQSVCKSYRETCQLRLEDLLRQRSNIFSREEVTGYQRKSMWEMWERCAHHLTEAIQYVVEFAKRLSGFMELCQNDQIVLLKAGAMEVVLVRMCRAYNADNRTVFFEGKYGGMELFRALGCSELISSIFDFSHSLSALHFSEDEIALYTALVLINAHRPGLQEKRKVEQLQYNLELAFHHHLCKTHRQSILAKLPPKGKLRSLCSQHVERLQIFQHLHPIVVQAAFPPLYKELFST
T1 sequence (Q15788 676-700 partner limits assumed): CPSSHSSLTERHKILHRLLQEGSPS
The experiment is described as follows: Determination of agonistic activities on RORγ receptors in vitro (dual FRET). The experiment is classed as biochemical. The following applies: average of at least two independent experiments. The method, then: Determination of Agonistic Activities of Compounds on RORγ Receptors In Vitro The agonistic activities of compounds described herein on RORγ receptor were determined by dual fluorescence resonance energy transfer (dual FRET) experiments. The agonistic activity was expressed by half maximum effect concentration (EC50).
1) Preparation of RORγ Assay Buffer
100 mL of buffer solution was well mixed with […] DTT for use.
2) Preparation of Solutions of Compounds
3) Preparation of protein mixtures a) 40 nM B-RORγ LBD solution was mixed well with 20 nM SA-APC solution and incubated for 15 minutes at room temperature. Then the resulting mixture was further mixed well with 400 nM Biotin and incubated for another 10 minutes at room temperature. […]
b) 40 nM Bioin-SRC1 solution was mixed well with 10 nM SA-eu solution and was incubated for 15 minutes at room temperature. Then the resulting mixture was further mixed well with 200 nM Biotin and was incubated for another 10 minutes at room temperature. […]
d) A mixture (25 μL) of B-RORγ LBD/SA-APC and Bioin-SRC1/SA-eu together with a test compound was added to one of the wells of a 384-well plate, and then the plate was centrifuged for one minute at 1000 rpm, and incubated at room temperature for one hour. The data were read on an Envision microplate detector and EC50 values were calculated.

In the case of `CC(C)Cc1ccc(-c2c(Cl)cc(NC(=O)Cc3ccc(S(C)(=O)=O)cc3)cc2Cl)cc1C#N` [Example 17, N-(2,6-Dichloro-3′-cyano-4′-isobutyl-[1,1′-biphenyl]-4-yl)-2-(4-(methylsulfonyl)phenyl)acetamide], the activation at 2 µM in experiment [1] was greater than 50%. Moreover, the figures for the EC50 in experiment [2] and in experiment [3] were less than 50 nM and 10 to 50 nM, respectively.

Compound `CCC(C)Cc1ccc(-c2c(Cl)cc(NC(=O)Cc3ccc(S(=O)(=O)CC)cc3)cc2Cl)cc1C#N` (stereo not drawn) [Example 41, N-(2,6-Dichloro-3′-cyano-4′-(2-methylbutyl)-[1,1′-biphenyl]-4-yl)-2-(4-(ethylsulfonyl)phenyl)acetamide] displayed an EC50 in experiment [2] greater than 150 nM.

For `CC(C)Cc1ccc(-c2c(Cl)cc(NC(=O)Cc3ccc(S(C)(=O)=O)cn3)cc2Cl)cc1C#N` [Example 20, N-(2,6-dichloro-3′-cyano-4′-isobutyl-[1,1′-biphenyl]-4-yl)-2-(5-(methylsulfonyl)pyridin-2-yl)acetamide], the activation at 2 µM in experiment [1] was greater than 50%. Moreover, the EC50 in experiment [2] is greater than 150 nM; in experiment [3], 10 to 50 nM.

In the case of `CCS(=O)(=O)c1ccc(CC(=O)Nc2cc(Cl)c(-c3ccc(CC(C)C)c(C#N)c3)c(Cl)c2)cc1` [Example 16, N-(2,6-Dichloro-3′-cyano-4′-isobutyl-[1,1′-biphenyl]-4-yl)-2-(4-(ethylsulfonyl)phenyl)acetamide], the activation at 2 µM in experiment [1] is greater than 50%. Also, the figures for the EC50 in experiment [2] and in experiment [3] were less than 50 nM and 10 to 50 nM, respectively.

As for `CCS(=O)(=O)c1ccc(CC(=O)Nc2cc(Cl)c(-c3ccc(OC(C)C)c(C#N)c3)c(Cl)c2)cc1` [Example 32, N-(2,6-Dichloro-3′-cyano-4′-isopropoxy-[1,1′-biphenyl]-4-yl)-2-(4-(ethylsulfonyl)phenyl)acetamide], the EC50 in experiment [2] was less than 50 nM.

As for `CCN(C)Cc1ccc(-c2c(Cl)cc(NC(=O)Cc3ccc(S(=O)(=O)CC)cc3)cc2Cl)cc1C#N` [Example 36, N-(2,6-Dichloro-3′-cyano-4′-((ethyl(methyl)amino)methyl)-[1,1′-biphenyl]-4-yl)-2-(4-(ethylsulfonyl)phenyl)acetamide], in experiment [1], the activation at 2 µM was greater than 50%. For the same compound, the EC50 in experiment [2] was greater than 150 nM; in experiment [3], 10 to 50 nM.

As for `CCS(=O)(=O)c1ccc(CC(=O)Nc2cc(Cl)c(-c3ccc(CC(C)C)c(C#N)c3)c(Cl)c2)nc1` [Example 19, N-(2,6-Dichloro-3′-cyano-4′-isobutyl-[1,1′-biphenyl]-4-yl)-2-(5-(ethylsulfonyl)pyridin-2-yl)acetamide], the activation at 2 µM in experiment [1] was 20 to 50%. The same compound gave an EC50 in experiment [2] of 50 to 150 nM.

Regarding `CCS(=O)(=O)c1ccc(CC(=O)Nc2cc(Cl)c(-c3ccc(CC(C)C)cc3)c(Cl)c2)cc1` [Example 26, N-(2,6-Dichloro-4′-isobutyl-[1,1′-biphenyl]-4-yl)-2-(4-(ethylsulfonyl)phenyl)acetamide], in experiment [1], the activation at 2 µM was less than 20%. Also, the EC50 in experiment [3] lay in the range of 10 to 50 nM.

In experiment [2], `CCS(=O)(=O)c1ccc(CC(=O)Nc2cc(Cl)c(-c3ccc(CC4CCC4)c(C#N)c3)c(Cl)c2)cc1` [Example 43, (N-(2,6-Dichloro-3′-cyano-4′-(cyclobutylmethyl)-[1,1′-biphenyl]-4-yl)-2-(4-(ethylsulfonyl)phenyl)acetamide)] had a concentration giving a half-maximal response (EC50) of 50 to 150 nM.

Turning to `CCN(CC)Cc1ccc(-c2c(Cl)cc(NC(=O)Cc3ccc(S(C)(=O)=O)cc3)cc2Cl)cc1C#N` [Example 33, N-(2,6-Dichloro-3′-cyano-4′-((diethylamino)methyl)-[1,1′-biphenyl]-4-yl)-2-(4-(methylsulfonyl)phenyl)acetamide], the activation at 2 µM in experiment [1] is 20 to 50%. The EC50 in experiment [3] lay within 10 to 50 nM.

With `CC(C)Cc1ccc(-c2c(Cl)cc(NC(=O)Cc3ccc(S(N)(=O)=O)cc3)cc2Cl)cc1C#N` [Example 21, N-(2,6-Dichloro-3′-cyano-4′-isobutyl-[1,1′-biphenyl]-4-yl)-2-(4-sulfamoylphenyl)acetamide], the activation at 2 µM in experiment [1] fell in the range of 20 to 50%. Also, the EC50 in experiment [2] is less than 50 nM; in experiment [3] it was less than 10 nM.
